Two compounds from patent US20240238211A1, “ISOQUINOLINE-STABILIZED LIPID NANOPARTICLE FORMULATIONS” (ModernaTX, Inc., priority 2021, published 2024) can be followed below.

Data set [1] relates to mRNA. Put plainly: mRNA stabilization: main peak purity by RP-HPLC (Example 1). The format is physicochemical. The note with it: LNP mRNA 0.2 mg/mL in buffer, T0, 3-day, 7-day (berberine, palmatine); buffered mRNA, 5 days at 50° C. (coralyne, palmatine). An excerpt:
mRNA purity can be determined by reverse phase high-performance liquid chromatography (RP-HPLC) size based separation. This method can be used to assess mRNA integrity by a length-based gradient RP separation and UV detection of RNA at 260 nm. As used herein “main peak” or “main peak purity” refers to the RP-HPLC signal detected from mRNA that corresponds to the full size mRNA molecule loaded within a given LNP formulation. mRNA purity can also be assessed by fragmentation analysis. Fragmentation analysis (FA) is a method by which nucleic acid (e.g., mRNA) fragments can be analyzed by capillary electrophoresis. Fragmentation analysis involves sizing and quantifying nucleic acids (e.g., mRNA), for example by using an intercalating dye coupled with an LED light source. Such analysis may be completed, for example, with a Fragment Analyzer from Advanced Analytical Technologies, Inc. Berberine USP was combined with an LNP containing mRNA (0.2 mg/ml in buffer) in amounts corresponding to the concentrations reported in FIG. 2. Main peak purity was measured by RP-HPLC at T0, 3-day, and 7-day. See, FIG. 2. Palmatine USP was combined with an LNP containing mRNA (0.2 mg/mL in buffer) in amounts corresponding to the concentrations reported in FIG. 3. Main peak purity was measured by RP-HPLC at T0, 3-day, and 7-day. […] After storage for 5 days at 50° C., main peak purity was measured by RP-HPLC. […]

The subject of data set [2] is mRNA. Put plainly: mRNA purity of three month, 25° C. stability samples of mRNA LNPs. The data set is classed as physicochemical. The conditions noted are these: mRNA LNPs containing palmatine at varying concentrations, 3 months at 25° C.
Data set [3] can be described thus: Immunogenicity of mRNA LNP stability samples in vivo (serum antibody titers). The note with it: three month, 25° C. stability samples of mRNA LNPs containing palmatine, mice. Details: species or system BALB/c mice. The procedure: Experiments were performed to (i) evaluate immunogenicity of mRNA LNPs containing palmatine or berberine at varying concentrations as compared to non-stabilized control mRNA LNPs. BALB/c mice (N=210) are injected with a mRNA LNP stabilized with varying concentrations of palmatine or berberine (e.g., 0, 0.5 mM, 0.75 mM, 1 mM, 2 mM, 5 mM, or 10 mM). Various dose levels (e.g., 2.5 ug/mg; 1.25 ug/mg; or 0.63 ug/mg) are injected into mice intramuscularly on day 1. On day 21, immunogenicity is assessed via serum antibody titers against protein encoded by the mRNA. The mice are given a booster injection on day 22, and then immunogenicity is again assessed on day 36. Three month, 25° C. stability samples from mRNA LNPs containing palmatine at varying concentrations, and non-stabilized mRNA LNPs (no palmatine) were tested in vivo as continued immunogenicity monitoring on stability. […] The drop in antibody titers is correlated to a significant drop in mRNA purity.

In data set [4] the test system is mRNA. The data set can be described thus: mRNA LNP stability as a function of pH and temperature (main peak purity). The format is physicochemical. The note with it: 1 mM excipient, pH 5.5 to 7.4, 0.8 mg/mL, 1 week at 40° C. or 2 weeks at 25° C. The procedure:
The stability of mRNA LNP formulations was evaluated as a function of pH and temperature in the presence and absence of berberine and palmatine. 1 mM excipients were added in pH conditions 5.5 to 7.4 to evaluate pH impact on mRNA stabilization in mRNA LNPs. For pH between 5.5-6.5, 7 mM citrate and 8% sucrose buffer was used. For pH of 7.4, tris/sucrose buffer was used. The LNP formulations were incubated at 0.8 mg/mL for 1 week at 40° C. or 2 weeks at 25° C., and then main peak purity was measured. Incubation for 1 week at 40° C. or 2 weeks at 25° C. show similar trends. […] See, FIG. 7.

Data set [5] has as its system mRNA. Put plainly: Differential scanning microcalorimetry of mRNA with palmatine chloride. The format is physicochemical. The note with it: increasing palmatine chloride up to 500 μM, 20 mM Tris, 8% sucrose. The protocol: With reference to FIG. 9, differential scanning microcalorimetry thermograms were obtained of lipid nanoparticles encapsulating mRNA and containing increasing concentrations of palmatine chloride (left-most trace—free mRNA, right-most trace—500 μM palmatine). The experiments were performed in 20 mM Tris, 8% sucrose buffer.
(In general: DSC measures the heat that a sample takes up or gives off during a temperature scan.)

Data set [6] concerns mRNA. Put plainly: Long-term stability of mRNA with 2 mM palmatine chloride (intact mRNA by chromatography). The conditions noted are these: for degradation rate (% per month) / greater purity than unstabilized composition: 0.20 mg/ml mRNA + 2 mM palmatine chloride. The format is physicochemical. The procedure: The degradation rate (% per month) of the stabilized composition was 1.8% as compared to […] for the unstabilized composition. […] The degradation rate (% per month) of the stabilized composition was 8.6% as compared to 38% for the unstabilized composition. […] With reference to FIGS. 10A and 10B, studies were performed to determine the long-term effect of palmatine chloride on thermal stability of mRNA. Aliquots of mRNA solution were mixed with 2 mM palmatine chloride and were incubated for the indicated periods of time at 5° C. (FIG. 10A) and 25° C. (FIG. 10B). The percentage of remaining intact mRNA was quantified using chromatography. The dashed line traces represent mRNA-only samples. The solid line traces represent mRNA samples containing palmatine chloride.

Data set [7] has as its system lipid nanoparticles encapsulating mRNA. Put plainly: Permeation of palmatine chloride into lipid nanoparticles encapsulating mRNA. The conditions noted are these: 2 mM palmatine, 1 to 14 days, 5, 15, 25 or 40° C., 20 mM Tris, 8% sucrose. The data set is classed as physicochemical. The protocol: Formulations contain 0.20 mg/ml mRNA DP with 2 mM palmatine chloride. With reference to FIG. 11, studies were performed to determine the effect of time and temperature on diffusion (permeation) of palmatine chloride into lipid nanoparticles encapsulating mRNA. The samples were prepared in 20 mM Tris, 8% sucrose. The lipid nanoparticles encapsulating mRNA were incubated in 2 mM palmatine for 1 to 14 days. Free palmatine was separated from the lipid nanoparticles by gel filtration on 40 kD Zeba cartridges, whereas the concentration of lipid nanoparticle-permeated palmatine was determined by reverse phase chromatography using a Luna C18 column.

For data set [8], the system named is mRNA. Put plainly: Stability of mRNA LNPs with DTPA and palmatine chloride (main peak purity). The note with it: 0.20 mg/ml mRNA LNP, 1 mM DTPA, palmatine chloride 0.5, 1 or 2 mM, up to 5 months. The format is physicochemical. The procedure:
With reference to FIG. 12, studies were performed to determine the stability of lipid nanoparticles encapsulating mRNA containing the chelator DTPA and varying concentrations of palmatine chloride. 0.20 mg/ml samples of lipid nanoparticles encapsulating mRNA and 1 mM DTPA were incubated with palmatine chloride (0 mM, 0.5 mM, 1 mM, or 2 mM). Measurements of main peak (mRNA) purity were taken at time points up to 5 months.

Data set [9] concerns mRNA. The data set can be described thus: HPLC purity of mRNA stressed at 40° C. for 3 weeks. The format is physicochemical. The conditions noted are these: ~1 mM berberine. The protocol:
HPLC analyses were performed to evaluate the purity of mRNA stressed at elevated temperature (40° C.) for 3 weeks. In the absence of stabilizer, less than 5% of the mRNA (main peak 5.857 min) remained intact. By contrast, in the presence of ˜1 mM berberine, over 22% of the mRNA (main peak 5.857 min) remained intact. […] See, FIG. 5.

Data set [10] concerns mRNA LNPs. Put plainly: Dynamic light scattering of mRNA LNPs after 40° C. stress. The format is physicochemical. The conditions noted are these: 1 mM berberine, 40° C. stress for 1 week. An excerpt:
Particle size (e.g., particle diameter) can be determined by Dynamic Light Scattering (DLS). DLS measures a hydrodynamic diameter. Smaller particles diffuse more quickly, leading to faster fluctuations in the scattering intensity and shorter decay times for the autocorrelation function. Larger particles diffuse more slowly, leading to slower fluctuations in the scattering intensity and longer decay times in the autocorrelation function. Dynamic light scattering is sensitive to perturbation to the physical integrity of mRNA LNPs. mRNA LNPs were formulated with 1 mM berberine or without berberine and then exposed to 40° C. temperature stress for 1 week. As a control, mRNA LNPs were formulated without berberine. The size distribution of the mRNA LNPs was then analyzed by dynamic light scattering. […] See, FIG. 6.

Data set [11] deals with mRNA. Put plainly: mRNA LNP stability at pH 7.4 as a function of berberine concentration (main peak purity). The data set is classed as physicochemical. The note with it: 0-1.5 mM berberine, pH 7.4 tris/sucrose, ~0.2 mg/mL, 1 week at 40° C. or 2 weeks at 25° C. The procedure: The stability of mRNA LNP formulations at pH of 7.4 was then further evaluated as a function of berberine concentration. A series of mRNA LNPs were formulated with various levels of berberine (0, 0.2, 0.4, 0.6, 0.8, 1.0, 1.25, 1.5 mM) and stressed in 7.4 pH tris/sucrose buffer at ˜0.2 mg/mL for either 1 week at 40° C. or 2 weeks at 25° C., and then main peak purity was measured. […] In this study, maximal effect occurs in the 1-1.25 mM berberine range. See, FIG. 8.

As to `COc1cc2c(cc1OC)-c1cc3ccc(OC)c(OC)c3c[n+]1CC2` [palmatine], the “effect on mRNA (main peak purity by RP-HPLC)” value in [1] is “stabilizing effect”. The “mRNA purity versus non-stabilized samples” value in [2] is on record as “higher mRNA purity than the non-stabilized”. For the same compound, the “antibody titers versus −70° C. non-stabilized control” value in data set [3] is “more similar antibody titers to the −70 °C control arm”. In data set [4], the “stabilizing effect across pH range (main peak purity)” value is “strong stabilizing effects”. In data set [5], the “effect of binding on thermal stability of mRNA (DSC thermograms)” value was “increased thermal stability of mRNA”. Also, the “degradation rate (% per month)” value in [6] (5° C. over twelve months) was 1.8 % per month; in data set [6] (25° C. over six months), 8.6 % per month. The “greater purity than unstabilized composition” value in data set [6] (5° C., after ten months) was found to be 20%; in data set [6] (25° C., after six months), 35%. Besides, in [6] (2 mM palmatine chloride, 5° C. and 25° C.), the “mRNA thermal stability in the presence of the compound” value is given as “significantly improved”. Besides, the “permeated concentration in lipid nanoparticles as a function of temperature” value in data set [7] is on record as “increased permeated palmatine concentration”. Further, the “rate of permeation into lipid nanoparticles as a function of temperature” value in data set [7] is given as “increased rate of permeation”. Further, the “mRNA stability (main peak purity)” value in data set [8] is “significantly improved”.

On to `COc1ccc2cc3[n+](cc2c1OC)CCc1cc2c(cc1-3)OCO2` [berberine], for which the “effect on mRNA (main peak purity by RP-HPLC)” value in [1] is “stabilizing effect”. For the same compound, in [9], the “mRNA remaining intact (main peak)” value is “over 22%”. Also, the “effect on hydrodynamic characteristics of the lipid nanoparticle (size distribution)” value in [10] is recorded as “no effect on the hydrodynamic characteristics of the lipid nanoparticle”. In data set [4], the “stabilizing effect across pH range (main peak purity)” value was “strong stabilizing effects”. In addition, the “dependence of stabilizing effect on concentration” value in [11] is listed as “concentration-dependent manner”.
